For assay [1], the system named is d(TTTGCAAA) duplex (DNA, duplex) TTTGCAAA
Kind of assay: UV melting at 260 nm. The following applies: Na+ (20 mM sodium cacodylate); pH 7.3, 4 µM duplex, no spermine; ACTD concentration not stated.

Assay [2] deals with 5'-biotin-labeled hairpin DNA duplex (DNA, hairpin) AAAGCTTTTGTAAAGCTTT
Kind of assay: SPR (BIAcore), ka/kd. The note with it: 50 mM NaCl; 20 mM Tris-HCl pH 7.3, no spermine. For orientation: Surface plasmon resonance follows binding to a sensor surface in real time, without labels.

A word on the Tm: it is the temperature at the midpoint of the melting transition.

*1 amine or outer side, *2 acyl side, *3 side chain or, on linkers, in order; H or OH if unused. Where a SMILES comes first, the peptide text is derived from it. Bridges are numbered along the chain shown (N, C = ends). Roman numbers before positions name the chains, in order. [ ]: non-standard residue; d: D form. Actinocin(9to1) = Cc1c2oc3c(C)ccc(C(=O)[*:1])c3nc-2c(C(=O)[*:2])c(N)c1=O; NMeV = CN[C@H](C(=O)O)C(C)C; Sar = CNCC(=O)O

Regarding `Cc1c2oc3c(C)ccc(C(=O)N[C@@H]4C(=O)N[C@H](C(C)C)C(=O)N5CCC[C@H]5C(=O)N(C)CC(=O)N(C)[C@@H](C(C)C)C(=O)O[C@@H]4C)c3nc-2c(C(=O)N[C@@H]2C(=O)N[C@H](C(C)C)C(=O)N3CCC[C@H]3C(=O)N(C)CC(=O)N(C)[C@@H](C(C)C)C(=O)O[C@@H]2C)c(N)c1=O` (I: T[dV]P[Sar][NMeV] / II: T[dV]P[Sar][NMeV]; ester I:1-I:C, II:1-II:C; linker I:N-II:N via Actinocin(9to1)), in assay [1], the Tm is 6.3 °C. Besides, the Ka in assay [2] was 2.48 ± 0.17 × 10^6 M^-1.

The values are drawn from paper PMC3493566 (2012).
